Reference: patent US11981677B2, “Further substituted triazolo quinoxaline derivatives” (Grünenthal GmbH, priority 2018, dated 2024)

These molecules were tested against T1, Glucocorticoid Receptor (Homo sapiens, UniProt P04150) (assay: Agonistic mode of action on the glucocorticoid receptor (CHO-Gal4/GR luciferase reporter cell line)). Conditions: CHO-Gal4/GR luciferase reporter cells; observed in the agonistic assay or the antagonistic assay (mode not given); read-out: IC50 or EC50 range.
T1 construct: expressed in transfected cells
T1 sequence (P04150 524-758 limits assumed): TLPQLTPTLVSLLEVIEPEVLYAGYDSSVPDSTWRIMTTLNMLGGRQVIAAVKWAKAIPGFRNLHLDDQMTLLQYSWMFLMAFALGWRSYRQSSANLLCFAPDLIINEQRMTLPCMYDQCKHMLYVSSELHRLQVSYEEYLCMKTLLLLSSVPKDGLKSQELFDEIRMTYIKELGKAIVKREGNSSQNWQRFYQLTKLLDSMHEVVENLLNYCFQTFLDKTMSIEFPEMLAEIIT
Type: cell-based
Text: Potential selective glucocorticoid receptor modulators of this intervention can be tested for modulation of the activity of the glucocorticoid receptor using cell-based assays. These assays involve a Chinese hamster ovary (CHO) cell line which contains fragments of the glucocorticoid receptor as well as fusion proteins. The glucocorticoid receptor fragments used are capable of binding the ligand (e.g. beclomethasone) to identify molecules that compete for binding with glucocorticoid receptor ligands. In more detail, the glucocorticoid receptor ligand binding domain is fused to the DNA binding domain (DBD) of the transcriptionfactor GAL4 (GAL4 DBD-GR) and is stably integrated into a CHO cell line containing a GAL4-UAS-Luciferase reporter construct. […] After cell lysis the luminescence that is produced by luciferase after addition of the substrate is detected and EC50 or IC50 values can be calculated. Engagement of molecules which induce gene expression via glucocortocoid receptor binding to the DNA leads to expression of the luciferase gene under the control of the fusion protein GAL4 DBD-GR and therefore to a dose-dependent increase of the luminescence signal. Binding of molecules which repress beclomethasone-induced gene expression of the luciferase gene under the control of the fusion protein GAL4 DBD-GR leads to a dose-dependent reduction of the luminescence signal.
The reporter cell line CHO-Gal4/GR consisted of a chinese hamster ovary (CHO) cell line (Leibniz Institute DSMZ—German Collection of Microorganisms and Cell Cultures GmbH: ACC-110) containing a firefly luciferase gene under the control of the GR ligand binding domain fused to the DNA binding domain (DBD) of GAL4 (GAL4 DBD-GR) stably integrated into CHO cells. This cell line was established by stable transfection of CHO cells with a GAL4-UAS-Luciferase reporter construct. In a subsequent step the ligand binding domain of the GR cloned into pIRES2-EGFP-GAL4 containing the DNA binding domain of GAL4 from pFA-AT2 was transfected. This fusion construct activated firefly luciferase expression under the control of a multimerized GAL4 upstream activation sequence (UAS). The signal of the emitted luminescence was recorded by the FLIPR^TETRA. This allowed for specific detection of ligand-induced activation of the GR and therefore for the identification of compounds with agonistic properties. The GAL4/UAS reporter was premixed with a vector that constitutively expressed Renilla luciferase, which served as an internal positive control for transfection efficiency.
The complete culture medium for the assay was: • DMEM F-12 (1:1) MIXTURE (LONZA cat. No: BE04-687F/U1) 500 mL • 5 mL of 100 mM Sodium Pyruvate (LONZA cat. No: BE12-115E) • 25 mL of 7.5% Sodium Bicarbonate (LONZA cat. No BE17-613E) • 6.5 mL of 1 M Hepes (LONZA cat. No: BE17-737E) • 5 mL of 100× Penicillin/Streptomycin (LONZA cat. No DE17-602E) • 50 mL of Fetal Bovine Serum (Euroclone cat. No ECS 0180L) • 0.25 mL of 10 mg/mL Puromycin (InvivoGen cat.: ant-pr-1) • 0.5 mL of 100 mg/mL Zeocin (InvivoGen cat.: ant-zn-1)
Cryo-preserved CHO-Gal4/GR cells were suspended in complete medium and 5000 cells/25 μl/well were seeded into the wells of 384-well polystyrene assay plates (Thermo Scientific, cat. #4332) and cultured at 37° C., 5% CO2 and 95% humidity. After 24 hours growth medium was carefully removed and replaced by 30111 Opti-MEM (GIBCO, cat. #31985062) as assay buffer. To test the compounds an 8-point half-log compound dilution curve was generated in 100% DMSO starting from a 2 mM stock and compounds were then diluted 1:50 in Opti-MEM. 10111 of compounds were then added to the wells containing 30 μl Opti-MEM resulting in a final assay concentration range from 10 μM to 0.003 μM in 0.5% DMSO. Compounds were tested at 8 concentrations in quadruplicate data points. […] Finally, cells were lysed with 20 μl of Triton/Luciferin solution and the signal of the emitted luminescence was recorded at the FLIPR^TETRA for 2 minutes. […]
Cc1c(-c2cc(F)cc3c(C4CC4)c[nH]c23)cc(F)c2c1-n1c(C)nnc1C(C)(C)N2 [Example 38, 8-(3-cyclopropyl-5-fluoro-1H-indol-7-yl)-6-fluoro-1,4,4,9-tetramethyl-4,5-dihydro-1-[1,2,4]triazolo[4,3-a]quinoxaline] showed an IC50 or EC50 (antagonist or agonist mode, not stated per compound) of under 100 nM.
CCc1c(-c2cc(F)cc3c2ccn3S(C)(=O)=O)cc(F)c2c1-n1c(C)nnc1C(C)(C)N2 [Example 48, 9-Ethyl-6-fluoro-8-(6-fluoro-1-methylsulfonyl-1H-indol-4-yl)-1,4,4-trimethyl-5H-[1,2,4]triazolo[4,3-a]quinoxaline] showed an IC50 or EC50 (antagonist or agonist mode, not stated per compound) of under 100 nM.
Work on CCc1c(-c2cccc3c2ccn3S(C)(=O)=O)cc(F)c2c1-n1c(C)nnc1C(C)(C)N2 [Example 49, 9-ethyl-6-fluoro-1,4,4-trimethyl-8-(1-(methylsulfonyl)-1H-indol-4-yl)-4,5-dihydro-[1,2,4]triazolo[4,3-a]quinoxaline] yielded an IC50 or EC50 (antagonist or agonist mode, not stated per compound) of 100 to 1000 nM.
CCc1c(-c2cc(F)cc3c2cnn3S(C)(=O)=O)cc(F)c2c1-n1c(C)nnc1C(C)(C)N2 [Example 53, 9-Ethyl-6-fluoro-8-(6-fluoro-1-methylsulfonyl-1H-indazol-4-yl)-1,4,4-trimethyl-5H-[1,2,4]triazolo[4,3-a]quinoxaline] showed an IC50 or EC50 (antagonist or agonist mode, not stated per compound) of 100 to 1000 nM.
For COCCn1ccc2c(-c3cc(F)c4c(c3OC)-n3c(C)nnc3C(C)(C)N4)cc(F)cc21 [Example 54, 6-Fluoro-8-[6-fluoro-1-(2-methoxy-ethyl)-1H-indol-4-yl]-9-methoxy-1,4,4-trimethyl-5H-[1,2,4]triazolo[4,3-a]quinoxaline], the IC50 or EC50 (antagonist or agonist mode, not stated per compound) was 100 to 1000 nM.
With COc1c(-c2cc(F)cc3c2ccn3CCO)cc(F)c2c1-n1c(C)nnc1C(C)(C)N2 [Example 55, 2-[6-Fluoro-4-(6-fluoro-9-methoxy-1,4,4-trimethyl-5H-[1,2,4]triazolo[4,3-a]quinoxalin-8-yl)-1H-indol-1-yl]-EtOH] the IC50 or EC50 (antagonist or agonist mode, not stated per compound) was 100 to 1000 nM.
COc1c(-c2cc(F)cc3c2ccn3S(C)(=O)=O)cc(F)c2c1-n1c(C)nnc1C(C)(C)N2 [Example 56, 6-Fluoro-8-(6-fluoro-1-methylsulfonyl-1H-indol-4-yl)-9-methoxy-1,4,4-trimethyl-5H-[1,2,4]triazolo[4,3-a]quinoxaline] showed an IC50 or EC50 (antagonist or agonist mode, not stated per compound) of 100 to 1000 nM.
Molecule COc1c(-c2cccc3c2ccn3S(C)(=O)=O)cc(F)c2c1-n1c(C)nnc1C(C)(C)N2 [Example 57, 6-Fluoro-9-methoxy-1,4,4-trimethyl-8-(1-methylsulfonyl-1H-indol-4-yl)-5H-[1,2,4]triazolo[4,3-a]quinoxaline] has an IC50 or EC50 (antagonist or agonist mode, not stated per compound) of 100 to 1000 nM.
In the case of COc1c(-c2cc(F)cc3c2ccn3CC(F)F)cc(F)c2c1-n1c(C)nnc1C(C)(C)N2 [Example 58, 8-(1-(2,2-difluoroethyl)-6-fluoro-1H-indol-4-yl)-6-fluoro-9-methoxy-1,4,4-trimethyl-4,5-dihydro-[1,2,4]triazolo[4,3-a]quinoxaline], the IC50 or EC50 (antagonist or agonist mode, not stated per compound) is reported as 100 to 1000 nM.
Molecule COc1c(-c2cc(F)cc3c2ccn3S(C)(=O)=O)cc(F)c2c1-n1c(C3CC3)nnc1C(C)(C)N2 [Example 59, 1-Cyclopropyl-6-fluoro-8-(6-fluoro-1-methylsulfonyl-1H-indol-4-yl)-9-methoxy-4,4-dimethyl-5H-[1,2,4]triazolo[4,3-a]quinoxaline] has an IC50 or EC50 (antagonist or agonist mode, not stated per compound) of 1000 to 15000 nM.
COc1c(-c2cc(F)cc3c2ccn3CCO)cc(F)c2c1-n1c(C3CC3)nnc1C(C)(C)N2 [Example 61, 2-[4-(1-Cyclopropyl-6-fluoro-9-methoxy-4,4-dimethyl-5H-[1,2,4]triazolo[4,3-a]quinoxalin-8-yl)-6-fluoro-1H-indol-1-yl]-EtOH] showed an IC50 or EC50 (antagonist or agonist mode, not stated per compound) of 1000 to 15000 nM.
Molecule COc1c(-c2cc(F)cc3c(C)c[nH]c23)cc(F)c2c1-n1c(C3CC3)nnc1C(C)(C)N2 [Example 62, 1-Cyclopropyl-6-fluoro-8-(5-fluoro-3-methyl-1H-indol-7-yl)-9-methoxy-4,4-dimethyl-5H-[1,2,4]triazolo[4,3-a]quinoxaline] has an IC50 or EC50 (antagonist or agonist mode, not stated per compound) of 100 to 1000 nM.
In the case of Cc1c(-c2cc(F)cc3c2ccn3S(C)(=O)=O)cc(F)c2c1-n1c(C3CC3)nnc1C(C)(C)N2 [Example 63, 1-Cyclopropyl-6-fluoro-8-(6-fluoro-1-methylsulfonyl-1H-indol-4-yl)-4,4,9-trimethyl-5H-[1,2,4]triazolo[4,3-a]quinoxaline], the IC50 or EC50 (antagonist or agonist mode, not stated per compound) is reported as 100 to 1000 nM.
Cc1c(-c2cccc3c2ccn3S(C)(=O)=O)cc(F)c2c1-n1c(C3CC3)nnc1C(C)(C)N2 [Example 64, 1-Cyclopropyl-6-fluoro-4,4,9-trimethyl-8-(1-methylsulfonyl-1H-indol-4-yl)-5H-[1,2,4]triazolo[4,3-a]quinoxaline] was tested, and the IC50 or EC50 (antagonist or agonist mode, not stated per compound) was 1000 to 15000 nM.
For Cc1c(-c2cc(F)cc3c2ccn3CCO)cc(F)c2c1-n1c(C3CC3)nnc1C(C)(C)N2 [Example 65, 2-[4-(1-Cyclopropyl-6-fluoro-4,4,9-trimethyl-5H-[1,2,4]triazolo[4,3-a]quinoxalin-8-yl)-6-fluoro-1H-indol-1-yl]-EtOH], the IC50 or EC50 (antagonist or agonist mode, not stated per compound) was 1000 to 15000 nM.
Molecule Cc1c(-c2cc(F)cc3c(C)c[nH]c23)cc(F)c2c1-n1c(C3CC3)nnc1C(C)(C)N2 [Example 66, 1-Cyclopropyl-6-fluoro-8-(5-fluoro-3-methyl-1H-indol-7-yl)-4,4,9-trimethyl-5H-[1,2,4]triazolo[4,3-a]quinoxaline] has an IC50 or EC50 (antagonist or agonist mode, not stated per compound) of 100 to 1000 nM.
With COCCn1ccc2c(-c3cc(F)c4c(c3C)-n3c(C)nnc3C(C)(C)N4)cccc21 [Example 300, 6-Fluoro-8-[1-(2-methoxy-ethyl)-1H-indol-4-yl]-1,4,4,9-tetramethyl-5H-[1,2,4]triazolo[4,3-a]quinoxaline] the IC50 or EC50 (antagonist or agonist mode, not stated per compound) was 100 to 1000 nM.
Molecule Cc1c(-c2cccc3c2ccn3CCO)cc(F)c2c1-n1c(C)nnc1C(C)(C)N2 [Example 301, 2-[4-(6-Fluoro-1,4,4,9-tetramethyl-5H-[1,2,4]triazolo[4,3-a]quinoxalin-8-yl)-1H-indol-1-yl]-EtOH] has an IC50 or EC50 (antagonist or agonist mode, not stated per compound) of 100 to 1000 nM.
Cc1c(-c2cccc3c2cnn3C)cc(F)c2c1-n1c(C)nnc1C(C)(C)N2 [Example 304, 6-Fluoro-1,4,4,9-tetramethyl-8-(1-methyl-1H-indazol-4-yl)-5H-[1,2,4]triazolo[4,3-a]quinoxaline] gave an IC50 or EC50 (antagonist or agonist mode, not stated per compound) of 100 to 1000 nM.
With Cc1c(-c2cccc3c2ccn3C2CC2)cc(F)c2c1-n1c(C)nnc1C(C)(C)N2 [Example 305, 8-(1-Cyclopropyl-1H-indol-4-yl)-6-fluoro-1,4,4,9-tetramethyl-5H-[1,2,4]triazolo[4,3-a]quinoxaline] the IC50 or EC50 (antagonist or agonist mode, not stated per compound) was under 100 nM.
CCc1nnc2n1-c1c(C)c(-c3cccc4c3ccn4S(C)(=O)=O)cc(F)c1NC2(C)C [Example 308, 1-Ethyl-6-fluoro-4,4,9-trimethyl-8-(1-methylsulfonyl-1H-indol-4-yl)-5H-[1,2,4]triazolo[4,3-a]quinoxaline] showed an IC50 or EC50 (antagonist or agonist mode, not stated per compound) of under 100 nM.
